Article PMC4490227, “Identification of Glycyrrhiza as the rikkunshito constituent with the highest antagonistic potential on heterologously expressed 5-HT3A receptors due to the action of flavonoids” (Frontiers in Pharmacology, 2015)
Read-outs that look alike come from different tables or passages of the source.

Target: T1, human 5-HT3A receptors (Homo sapiens, UniProt P46098)
T1 sequence (P46098 24-478): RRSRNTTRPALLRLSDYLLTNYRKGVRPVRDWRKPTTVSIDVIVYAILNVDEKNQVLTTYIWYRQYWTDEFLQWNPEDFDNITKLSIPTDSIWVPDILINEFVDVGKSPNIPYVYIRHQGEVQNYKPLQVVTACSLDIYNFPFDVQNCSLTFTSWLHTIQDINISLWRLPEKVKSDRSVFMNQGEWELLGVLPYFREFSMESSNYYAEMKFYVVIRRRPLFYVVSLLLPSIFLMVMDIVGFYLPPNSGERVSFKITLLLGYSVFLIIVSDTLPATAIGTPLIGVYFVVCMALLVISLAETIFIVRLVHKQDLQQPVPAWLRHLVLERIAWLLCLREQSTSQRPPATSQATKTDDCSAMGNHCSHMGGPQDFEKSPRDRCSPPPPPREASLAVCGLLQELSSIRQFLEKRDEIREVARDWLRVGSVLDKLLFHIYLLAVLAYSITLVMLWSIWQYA
Assay: Two-electrode voltage-clamp: modulation of 5-HT-induced currents at 5-HT3A receptors heterologously expressed in Xenopus laevis oocytes
Type: cell-based
Design: key to mode of antagonism: c, apparently competitive; nc, non-competitive
Conditions: for IC50: read-out: IC50 of substances; for synergistic effects between different herbal 5-HT3A receptor antagonists: pairs: 6-gingerol and citronellol, hesperetin and 6-shogaol (Supplementary Figure 3); for inhibition of the 5-HT3A receptor response by solvent: solvent 1.0 Vol.-%
Description: The expression plasmid contains the cDNA coding for the 5-HT3A protein in pcDNA3 (Invitrogen) (Lobitz et al., [2001]). cRNAs were prepared using the AmpliCap T7 high-yield message marker kit (Epicenter, Madison, WI, USA), following the manufacturer's protocol. Xenopus laevis oocytes were obtained as previously described (Sherkheli et al., [2010]) and injected with a total amount of 7–20 ng of the receptor-coding cRNA using an injection-setup from WPI (Nanoliter 2000, Micro4). The injected oocytes were stored in ND 96 (96.0 mM NaCl, 2.0 mM KCl, 1.8 mM CaCl2, 1.0 mM MgCl2, 5.0 mM HEPES, pH 7.2, 200 U/ml penicillin, and 200 μg/ml streptomycin) at 17°C. Measurements were performed one to 5 days after cRNA injection.
The electrophysiological recordings were performed using the two-electrode voltage-clamp technique as previously described (Saras et al., [2008]). All of the measurements were performed in normal frog ringer (NFR) [115 mM NaCl, 2.5 mM KCl, 1.8 mM CaCl2, 10 mM HEPES; pH 7.2 (NaOH/HCl)] containing niflumic acid (NA) (100 μM) to block the Ca^2+-induced currents mediated by the intrinsic chloride channel (TMEM16A) or under Ca^2+-free conditions [115 mM NaCl, 2.5 mM KCl, 1.8 mM MgCl2, 10 mM HEPES; pH 7.2 (NaOH/HCl)]. All of the substances were applied after preincubation (30 s). The currents were recorded at a holding potential of typically −60 mV using the Cell Works 6.1.1. software (NPI).
As a control, we tested the competitive antagonists ondansetron (1 nM) and d-tubocurarine (20 μM) (Hope et al., [1996]) and the non-competitive antagonist picrotoxin (50 μM) (Das and Dillon, [2005]). […] Nevertheless, a definitive differentiation between competitive, allosteric, and concentration-dependent antagonists must be performed using ligand binding assays.
The concentration-response data were fitted with the Hill equation with variable slope using SigmaPlot 8.0 (SPSS). Thereby, the calculation of the EC50 and IC50-values was done. The deviations are represented by the standard error of the mean (SEM). The datasets were tested for statistically significant differences through Student's t-test using Excel 2010 (Microsoft) (^*p < 0.05; ^**p < 0.005; ^***p < 0.0005). For multiple comparisons, the significance levels were corrected via Bonferroni-correction.

[1] = from comparison of inhibition at 2.5 and 30 μM 5-HT
[2] = inhibition at 2.5 vs 30 μM 5-HT
[3] = read-out: Mean inhibition ± SEM [%] 5-HT [2.5 μM]
[4] = read-out: Mean inhibition ± SEM [%] 5-HT [30 μM]
[5] = substance 1 mM (Figure 2A), read-out: 5-HT3A receptor inhibition by the substances (screening)

Compound: C=CC(C)(C)c1cc(/C=C/C(=O)c2ccc(O)cc2)c(OC)cc1O [Licochalcone A, licochalcone A]
- direct activation of 5-HT3A receptors: absence of the direct activation
- residual current remaining (5 μM 5-HT): approximately 40%
- mode of antagonism [1]: ^*/c
- mode of antagonism [2]: apparent competitive antagonism
- IC50: 14.4 ± 1.3 µM
- inhibition at 1000 µM [3]: 76.1 ± 6.1%
- inhibition at 1000 µM [4]: 58.7 ± 2.6%
- inhibition at 1000 µM [5]: 70.6 ± 3.1%

Compound: CCCCC/C=C/C(=O)CCc1ccc(O)c(OC)c1 [6-shogaol]
- synergistic effects between different herbal 5-HT3A receptor antagonists: synergistic

Compound: CCO [Ethanol, ethanol]
- inhibition of the 5-HT3A receptor response by solvent: 14.1 ± 2.6%

Compound: COc1ccc([C@@H]2CC(=O)c3c(O)cc(O[C@@H]4O[C@H](CO[C@@H]5O[C@@H](C)[C@H](O)[C@@H](O)[C@H]5O)[C@@H](O)[C@H](O)[C@H]4O)cc3O2)cc1O [Hesperidin, hesperidin]
- 5-HT3A receptor inhibition by the substances (screening) (substance 1 mM (Figure 2A)): no effect
- 5-HT3A receptor inhibition by the substances (screening) (substance 1 mM (Figure 2A), listed as hesperidin): −2.6 ± 5.3%

Compound: Cc1nccn1CC1CCc2c(c3ccccc3n2C)C1=O (centres unmarked) [Ondansetron, ondansetron, reference compound]
- mode of antagonism [1]: ^*/c
- inhibition at 0.001 µM [3]: 82.4 ± 3.4%
- inhibition at 0.001 µM [4]: 57.9 ± 5.3%

Compound: CC1(C)[C@@H](O[C@H]2O[C@H](C(=O)O)[C@@H](O)[C@H](O)[C@H]2O[C@@H]2O[C@H](C(=O)O)[C@@H](O)[C@H](O)[C@H]2O)CC[C@]2(C)[C@H]3C(=O)C=C4[C@@H]5C[C@@](C)(C(=O)O)CC[C@]5(C)CC[C@@]4(C)[C@]3(C)CC[C@@H]12 [Glycyrrhizin, glycyrrhizin]
- inhibition at 1000 µM [5]: -3.1 ± 4.3%

Compound: COc1cc2c3cc1Oc1cc(ccc1O)C[C@@H]1c4c(cc(OC)c(O)c4Oc4ccc(cc4)C[C@@H]3N(C)CC2)CC[N+]1(C)C [D-tubocurarine, d-tubocurarine, reference compound]
- mode of antagonism [1]: ^**/c
- inhibition at 20 µM [3]: 82 ± 3.5%
- inhibition at 20 µM [4]: 45.9 ± 4.8%

Compound: COc1ccc([C@@H]2CC(=O)c3c(O)cc(O)cc3O2)cc1O [Hesperetin, hesperetin]
- mode of antagonism [1]: ns/nc
- synergistic effects between different herbal 5-HT3A receptor antagonists: synergistic
- IC50: 218 ± 38 µM
- inhibition at 1000 µM [3]: 77.3 ± 9%
- inhibition at 1000 µM [4]: 79.7 ± 6.1%
- 5-HT3A receptor inhibition by the substances (screening) (substance 1 mM (Figure 2A)): antagonistic effects
- inhibition at 1000 µM [5]: 66.6 ± 9.3%

Compound: CCCCC[C@H](O)CC(=O)CCc1ccc(O)c(OC)c1 [6-gingerol]
- synergistic effects between different herbal 5-HT3A receptor antagonists: synergistic

Compound: picrotoxin [reference compound]
- mode of antagonism [1]: ns/nc
- Mean inhibition ± SEM [%] 5-HT [2.5 μM] (substance 50 μM, 5-HT 2.5 μM, 30 s preincubation): 72.5 ± 3.7%
- Mean inhibition ± SEM [%] 5-HT [30 μM] (substance 50 μM, 5-HT 30 μM, 30 s preincubation): 73.0 ± 2.8%

Compound: C=C1CCC[C@]2(C)C[C@]3(O)OC(=O)C(C)=C3C[C@@H]12 [Atractylenolide III, atractylenolide III]
- mode of antagonism [1]: ns/nc
- IC50: 1320 ± 145 µM
- inhibition at 1000 µM [3]: 55 ± 6.2%
- inhibition at 1000 µM [4]: 57.8 ± 6%

Compound: O=C1C[C@@H](c2ccc(O)cc2)Oc2cc(O)ccc21 [(-)-liquiritigenin]
- mode of antagonism [1]: ^*/nc
- mode of antagonism [2]: non-competitive
- IC50: 210 ± 25 µM
- inhibition at 500 µM [3]: 84.5 ± 2.4%
- inhibition at 500 µM [4]: 93.5 ± 0.5%
- inhibition at 1000 µM [5]: 92.8 ± 2.2%

Compound: CC1(C)C=Cc2c(ccc3c2OC[C@@H](c2ccc(O)cc2O)C3)O1 [Glabridin, glabridin]
- mode of antagonism [1]: ^***/c
- mode of antagonism [2]: apparent competitive antagonism
- IC50: 28 ± 2.8 µM
- inhibition at 100 µM [3]: 64.7 ± 2.1%
- inhibition at 100 µM [4]: 17.3 ± 2.3%
- inhibition at 100 µM (substance 100 μM (Figure 2A), read-out: 5-HT3A receptor inhibition by the substances (screening)): 62.8 ± 2.1%

Compound: C[S+](C)[O-] [DMSO, dimethyl sulfoxide]
- inhibition of the 5-HT3A receptor response by solvent: 29.1 ± 4.7%

Compound: CC(C)=CCCC(C)CCO (centres unmarked) [citronellol]
- synergistic effects between different herbal 5-HT3A receptor antagonists: synergistic

Compound: C[C@@H]1O[C@@H](OC[C@H]2O[C@@H](Oc3c(-c4ccc(O)c(O)c4)oc4cc(O)cc(O)c4c3=O)[C@H](O)[C@@H](O)[C@@H]2O)[C@H](O)[C@H](O)[C@H]1O [rutin]
- 5-HT3A receptor inhibition by the substances (screening) (substance 1 mM (Figure 2A)): antagonistic effects
- inhibition at 1000 µM [5]: 57 ± 6.1%
